# “Also recorded” adds a separate entry of the source.
# What was measured:
# MRL/MpJ-Fas^lpr/J mice [1] = assay: Splenomegaly (spleen mass and histology) in MRL/lpr mice; format: in vivo
# Excerpt: (§1) Mice. […] Water was given ad libitum.
# MRL/MpJ-Fas^lpr/J mice [2] = settings: 300 ng per day 1,25(OH)2D3 in diet, earlier thesis work (Kim 2009); cited from earlier work
# MRL/MpJ-Fas^lpr/J mice [3] = assay: Proteinuria in MRL/lpr mouse model of systemic lupus erythematosus / lupus nephritis; format: in vivo
# Description: as §1
# (§2) Proteinuria measurements. Proteinuria measurements were performed by putting gentle pressure on the bladder for spot urine analysis on a clean surface with a semi-quantitative dipstick (Combistix, Bayer). Mice were determined to have proteinuria when urinary protein output was 100 mg/dL or more. Urine was collected by placing the animals in metabolic cages and performing two-24 hr collections. Total protein was measured using a Bradford assay. (MM Bradford, Analytical Biochemistry 72: 248-254, 1976).
# MRL/MpJ-Fas^lpr/J mice [4] = assay: Kidney and heart histology in MRL/lpr mice; format: in vivo
# Description: as §1
# Histology. Half of a kidney was preserved in cold zinc formalin fixative, embedded in paraffin, and sectioned 4 μm thick. Hematoxylin and eosin (H&E) and Masson-Goldner's trichrome were used to study histological differences between kidney samples. Von Kossa staining was performed on whole heart sections (processed as described above) to determine heart calcification. Sectioning and staining was performed by the University of Wisconsin—Madison McArdle Histology Laboratory. Micrographs in the figures were taken by an Olympus BH-2 microscope and Nikon Coolpix 990 digital camera.
# [5] = tested on: ⅚ths Nephrectomy Rat Model; assay: ⅚ths Nephrectomy Rat Model (uremic rat); format: in vivo, Sprague-Dawley rats; settings: uremic rats
# Excerpt: ⅚ths Nephrectomy Rat Model. Disease Induction. Weanling, male Sprague-Dawley rats were obtained from Harlan (Madison, Wis.). Following a 10-13 day acclimation period, the animals had two-thirds of one kidney removed. After a week, the other entire kidney was removed. The animals were then switched from a chow diet to a purified rodent diet (Suda et al., Purified Rodent Diet-Diet 11) containing 0.6% Ca and 0.9% phosphorus and fat soluble vitamins A, D, E and K. Water and diet were provided ad libitum.
# Animal Husbandry. Animals were housed in suspended, plastic shoe-box style cages with corn cob bedding (prior to surgery) or in stainless steel, wire-bottom cages (approximately one week after surgery). The animal rooms were maintained at a temperature of 68 to 72° F. and a relative humidity of 25 to 75%. The holding rooms were set to provide 12 hours of light per day.
# Treatment Groups. Approximately four weeks after the second surgery, animals were assigned to treatment groups (14-15 animals/group) so that each group had the same average PTH level.
# Dose Preparation (Vehicle Formulation). The negative control material was prepared by volumetrically measuring ethanol (5%) and Neobee oil, mixing and then placing in storage at 2 to 8° C.
# Dose Preparation (2MD Formulation). 2MD formulations (DP001, Sigma Aldrich Fine Chemicals, Madison, Wis.) were prepared by first determining the concentration of an ethanol stock solution using UV spectrophotometry (extinction coefficient=42,000; max=252 nm). The solutions were then volumetrically added to Neobee oil so that there was no more than 5% ethanol in the final solution. If necessary, additional ethanol was added to bring the final ethanol amount to 5%. The solution was mixed and stored at 2 to 8° C.
# Dose Administration Method. Both vehicle and 2MD were administered orally to the back of the tongue at 0.5 ml/kg body weight once daily for 8 weeks.
# Serum Parathyroid Hormone (PTH) Levels. By “serum PTH levels” we mean the amount of PTH released by the parathyroid gland. PTH is the most important regulator of the body's calcium and phosphorus levels, and is controlled by the level of calcium in the blood. Low blood calcium levels cause increased PTH to be released, while high blood calcium levels inhibit PTH release. Normal values are 10-55 picograms per milliliter (pg/mL). Four weeks after surgery and 4 and 8 weeks after treatment initiation, blood was collected from the tail artery and the concentration of bioactive serum PTH was measured using the rat BioActive Intact PTH ELISA Kit from Immutopics, Inc. (San Clemente, Calif.).
# Serum Calcium Analysis. Four weeks following surgery and 4 and 8 weeks after treatment started, blood was collected from the tail artery of each experimental animal. The blood was allowed to coagulate at room temperature and then centrifuged at 3000×g for 15 minutes. The serum was transferred to a polypropylene tube and stored frozen at −20° C. The level of calcium was determined by diluting the serum into 0.1% lanthum chloride and measuring the absorbance on an atomic absorption spectrophotometer (Perkin Elmer Model 3110, Shelton, Conn.).
# Phosphorus Assay. Four weeks after surgery and 8 weeks after treatment started, blood was collected from the tail artery of each experimental animal. The blood was allowed to coagulate at room temperature and then centrifuged at 3000×g for 15 minutes. The serum was transferred to a polypropylene tube and stored frozen at −20° C. The level of phosphorus was determined using a clinical analyzer (Pentra 400, Horiba ABX Diagnostics—France; UV method using phosphomolybdate).
# Creatinine Assay. Measuring serum creatinine levels is a useful and inexpensive method of evaluating renal dysfunction. Creatinine is a non-protein waste product of […] metabolism by skeletal muscle tissue. Creatinine production is continuous and is proportional to muscle mass. […]
# [6] = Serum calcium in treated MRL/lpr mice
# Description: Mice. All mice used in this study were female MRL/MpJ-Fas^lpr/J mice either purchased directly or originally purchased from The Jackson Laboratory and bred in house. All mice involved in each study were age matched to the week of birth. All animal handling was performed according to protocol A1205 approved by the University of Wisconsin—Madison Institutional Animal Care and Use Committee. From weaning, female mice were placed on purified diet containing 0.47% calcium without 2MD until treatment initiation. The purified powder diet was prepared in agar form and administered 3 times a week. 2MD was administered through diet based on 5 g daily diet consumption per mouse. Water was given ad libitum. Blood was taken via retro-orbital bleeding method under isoflurane anesthetic. Serum was isolated from blood samples, frozen and subsequently analyzed with a benchtop clinical chemistry analyzer (Pentra 400, Horiba ABX).
# NOD mice = assay: NOD Mouse Model of Type I Diabetic Nephropathy; format: in vivo; settings: 2MD in the diet
# Description: as §2
# Disease Induction. NOD mice (breeder pairs) were obtained from JAX laboratories (Bar Harbor, Me.). Weanling mice were placed on chow diet (5K52 Lab Diets) or purified diet (Suda et al., Purified Rodent Diet-Diet 11) and allowed to spontaneously develop diabetes (two consecutive measurements of plasma glucose >[…]). Water and diet were provided ad libitum.
# Animal Husbandry. Animals were housed in autoclaved, plastic shoe-box style cages with corn cob bedding in groups of 2-4 animals/cage. Once mice were confirmed diabetic, the cages were changed daily. The animal rooms were maintained at a temperature of 68 to 72° F. and a relative humidity of 25 to 75%. […]
# Treatment Groups. […] Once animals were determined to be diabetic, animals were assigned to treatment groups (6-12/group) so that each group would have the same average plasma glucose level at enrollment. […]
# [7] = Growth, body weight and clinical signs in treated MRL/lpr mice; format: in vivo
# Excerpt: as §1
# [8] = daily oral 2MD for 8 weeks vs vehicle
# [9] = daily oral 2MD vs vehicle, six weeks after treatment initiation
compound,measurement,setting,value
"C=C1/C(=C\C=C2/CCC[C@]3(C)[C@@H]([C@H](C)CCCC(C)(C)O)CC[C@@H]23)C[C@@H](O)C[C@@H]1O [1,25(OH)2D3, 1α,25-dihydroxyvitamin D3, reference compound]",spleen mass reduction,"MRL/MpJ-Fas^lpr/J mice [1]; 150 ng per day 1,25(OH)2D3",comparable to that achieved with 5 ng 2MD treatment
same,"spleen histology, compared with 5 ng 2MD","MRL/MpJ-Fas^lpr/J mice [1]; 300 ng 1,25(OH)2D3",better retention of normal spleen histology
same,spleen mass normalized to body weight,"MRL/MpJ-Fas^lpr/J mice [1]; 300 ng 1,25(OH)2D3",statistically significant reduction
same,"spleen mass, compared with 5 ng 2MD","MRL/MpJ-Fas^lpr/J mice [1]; 300 ng 1,25(OH)2D3",greater reduction in spleen mass
same,proteinuria,MRL/MpJ-Fas^lpr/J mice [2],completely prevents proteinuria
same,prevention of proteinuria,"MRL/MpJ-Fas^lpr/J mice [3]; 300 ng 1,25(OH)2D3 compared with 5 ng 2MD",equally effective
"C=C1[C@H](O)CC(=C/C=C2\CCC[C@@]3(C)C2CCC3[C@@H](C)CCCC(C)(C)O)C[C@H]1O (stereo partly drawn) [2MD, 2-methylene-19-nor-(20S)-1α,25-(OH)2D3]",perivascular infiltration,MRL/MpJ-Fas^lpr/J mice [4]; 5 ng 2MD vs control,slight decrease; also recorded: noticeably decreased
same,tubulointerstitial infiltration of leukocytes,MRL/MpJ-Fas^lpr/J mice [4]; 5 ng 2MD vs control,noticeable decrease; also recorded: substantially less
same,"glomerular damage (sclerosis, fibrosis, basement membrane thickening, mesangial proliferation)","MRL/MpJ-Fas^lpr/J mice [4]; 5 ng 2MD vs control, kidney histology",prevented
same,interstitial fibrosis (fibrotic staining),"MRL/MpJ-Fas^lpr/J mice [4]; 5 ng 2MD vs control, trichrome stain",significantly less; also recorded: the extent and frequency was much less
same,calcification in kidneys and hearts,MRL/MpJ-Fas^lpr/J mice [4]; 2MD treated MRL/lpr mice,lack of evidence of calcification; also recorded: absence of calcification artifacts
same,all markers of kidney failure,[5]; 2MD treatment,improved
same,serum creatinine,[5]; [8],lower levels
same,serum phosphorus,[5]; [8],lower levels
same,urinary protein excretion,[5]; [9],lower levels
same,urinary volume,[5]; [9],lower levels
same,bone mineral density (total body BMD),[5]; daily oral 2MD,improved bone mineral densities; also recorded: increased bone mineral density
same,overall survival,[5]; daily oral 2MD,increased overall survival
same,serum PTH levels,[5]; daily oral 2MD,decreased PTH levels; also recorded: lower PTH levels
same,total serum calcium,[5]; dose levels of 2MD giving the positive effects,do not significantly raise serum calcium
same,spleen histology (white pulp structure),MRL/MpJ-Fas^lpr/J mice [1]; 5 ng 2MD,helps retain the sheath-like structure; also recorded: retains some of the sheath structure
same,splenomegaly / spleen weight (also normalized to body weight),"MRL/MpJ-Fas^lpr/J mice [1]; 5 ng 2MD vs 0 ng control, p<0.05",significantly reduced splenomegaly; also recorded: significantly decreased
same,serum calcium levels,"[6]; 1 ng 2MD, MRL/lpr mice, throughout the study",within the physiologically normal range
same,serum calcium levels,"[6]; 5 ng 2MD per mouse per day, MRL/lpr mice",without dramatically increasing
same,"serum calcium, highest measured point","[6]; 5 ng 2MD, MRL/lpr mice",12.4 mg/dL
same,serum calcium at study termination,"[6]; 5 ng 2MD, MRL/lpr mice, week 19",10.9 mg/dL
same,serum calcium levels,"[6]; 2MD treatment (0.5, 1, 5 ng), week 10 to 19, MRL/lpr mice",mildly elevated
same,overall urine volume output,NOD mice,reduced; also recorded: marked improvement
same,total urinary protein excretion,NOD mice,reduced; also recorded: marked improvement
same,reduction in proteinuria incidence,"MRL/MpJ-Fas^lpr/J mice [3]; 1 ng 2MD per mouse per day in diet, MRL/lpr mice",> 60%
same,mean time of onset of proteinuria,"MRL/MpJ-Fas^lpr/J mice [3]; 1 ng 2MD, MRL/lpr mice",delayed mean time of onset of proteinuria
same,proteinuria (terminal incidence),"MRL/MpJ-Fas^lpr/J mice [3]; 5 ng 2MD/mouse/day in diet, MRL/lpr mice, treatment week 10 to 19",completely preventing proteinuria; also recorded: completely prevented; also recorded: sufficient to prevent proteinuria
same,"hypercalcemia and associated effects including weight loss, compared with 150 ng 1,25(OH)2D3",[7]; 1 ng 2MD,significantly less
same,clinical symptoms of hypercalcemia,[7]; 5 ng 2MD,symptoms of hypercalcemia including unkempt fur and nervousness
same,growth / weight loss,[7]; 5 ng 2MD,adversely affected; also recorded: Weight loss is most severe
same,growth,[7]; 0.5 and 1 ng 2MD,slight impact on growth; also recorded: very mild
same,lethargy or morbidity,"[7]; any 2MD dose group (0.5, 1, 5 ng)",no lethargy or morbidity was observed

# From US20110034426A1, “Method of Preventing Renal Disease and Treating Symptoms Thereof” (WISCONSIN ALUMNI RESEARCH FOUNDATION, priority 2009, published 2011)
